Measurements reported in publication PMC12238723, “Phase I Clinical Trial of CVL218, a Novel PARP1/2 Inhibitor, in Patients with Advanced Solid Tumors” (MedComm, 2025).

Columns and labels:
[1] = tested on: human ether‐a‐go‐go‐related gene channel; set-up: method as in PMID 27926532, PMID 36283983; settings: cited from earlier work
[2] = Plasma PK after a single oral dose (Cycle 0 Day 1); assay type: in vivo, patients
Method: CVL218 was administered orally, and this dose‐escalation trial included nine dose levels: 100 mg QD (50 mg BID), 200 mg QD (100 mg BID), 400 mg QD (200 mg BID), 700 mg QD (350 mg BID), 1000 mg QD (500 mg BID), 1200 mg QD (600 mg BID), 1400 mg QD (700 mg BID), 1700 mg QD (850 mg BID), and 2000 mg QD (1000 mg BID). Patients enrolled in the study received a single oral dose on the first day, followed by continuous multiple dosing (twice a day taking 12 h apart) after 72 h, with the treatment cycle lasting 4 weeks. The period during which patients received a single dose is designated as cycle 0 (C0), lasting 72 h. After this period, patients begin multiple dosing, referred to as cycle 1 (C1). An initial accelerated titration design was employed for the three lowest dose groups, and the “3+3” design was applied starting with the 300 mg BID cohort.
A clinical PK study of CVL218 was conducted, involving blood samples collection during single‐dose administration (before treatment and 0.5, 1, 2, 3, 4, 5, 6, 8, 10, 12, and 24 h after treatment on C0D1) and multiple dosing (before treatment and 0.5, 1, 2, 3, 4, 5, 6, 8, 10, and 12 h after treatment on C1D1; before treatment on C1D8, C1D15, and C1D22; before treatment and 0.5, 1, 2, 3, 4, 5, 6, 8, 10, and 12 h after treatment on C1D28)
Single‐dose and multiple‐dose PK parameters included C max, T max, elimination half‐life (T 1/2), AUC0– t , AUC0–inf, oral clearance (CL/F), and apparent volume of distribution (V z/F) for CVL218. Tumor response was assessed per RECIST 1.1. ORR was defined as proportion of patients with a CR or PR on at least one visit, while DCR was defined as proportion of patients with a CR or PR or SD. PFS was defined as the time from the first dose of either drug to investigator assessed radiologic PD or to death of any cause. PFS would be censored at the time of last tumor assessment.
Subjects who received at least one dose of CVL218 with postadministration safety records were included in safety analysis set. Subjects who received at least one dose of CVL218 with at least one evaluable PK parameter were included in PK analysis set. Per‐protocol set were used for efficacy analysis. Descriptive statistics of safety were presented per CTCAE v5.0. The PK parameters T max and T 1/2 were shown as the median (min, max) and mean ± SD, respectively. A two‐sided p < 0.05 was considered to indicate statistical significance. Statistical analysis was performed by using GraphPad prism 8.0.2 and R‐4.3.3.

[3] = single dose C0D1, 100mg QD, n 1
[4] = single dose C0D1, 200mg QD, n 1
[5] = single dose C0D1, 400mg QD, n 1
[6] = single dose C0D1, 700mg QD, n 4
[7] = single dose C0D1, 1000mg QD, n 4
[8] = single dose C0D1, 1200mg QD, n 4
[9] = single dose C0D1, 1400mg QD, n 6
[10] = single dose C0D1, 1700mg QD, n 5

CNCc1ccc(-c2cc3cc(F)cc(C(N)=O)c3o2)cc1.Cl [CVL218]
inhibitory activity on the hERG channel [1]: without inhibitory activity
AUC0-inf, Geometric Mean [2, 3]: 231.0 ng·h/mL
AUC0-t, Geometric Mean [2, 3]: 207.0 ng·h/mL
Cl/F, Geometric Mean [2, 3]: 432000.0 mL/h
Cmax, Geometric Mean [2, 3]: 40.9 ng/mL
T1/2, Mean [2, 3]: 3.6 h
Vz/F, Geometric Mean [2, 3]: 2270000.0 mL
AUC0-inf, Geometric Mean [2, 4]: 1360.0 ng·h/mL
AUC0-t, Geometric Mean [2, 4]: 1310.0 ng·h/mL
Cl/F, Geometric Mean [2, 4]: 147000.0 mL/h
Cmax, Geometric Mean [2, 4]: 218.0 ng/mL
T1/2, Mean [2, 4]: 5.1 h
Vz/F, Geometric Mean [2, 4]: 1080000.0 mL
AUC0-inf, Geometric Mean [2, 5]: 2010.0 ng·h/mL
AUC0-t, Geometric Mean [2, 5]: 1900.0 ng·h/mL
Cl/F, Geometric Mean [2, 5]: 199000.0 mL/h
Cmax, Geometric Mean [2, 5]: 334.0 ng/mL
T1/2, Mean [2, 5]: 6.0 h
Vz/F, Geometric Mean [2, 5]: 1710000.0 mL
AUC0-inf, Geometric Mean [2, 6]: 3450.0 ng·h/mL
AUC0-t, Geometric Mean [2, 6]: 3260.0 ng·h/mL
Cl/F, Geometric Mean [2, 6]: 203000.0 mL/h
Cmax, Geometric Mean [2, 6]: 360.0 ng/mL
T1/2, Mean [2, 6]: 6.3 h
Vz/F, Geometric Mean [2, 6]: 1700000.0 mL
AUC0-inf, Geometric Mean [2, 7]: 4820.0 ng·h/mL
AUC0-t, Geometric Mean [2, 7]: 4095.0 ng·h/mL
Cl/F, Geometric Mean [2, 7]: 212000.0 mL/h
Cmax, Geometric Mean [2, 7]: 579.5 ng/mL
T1/2, Mean [2, 7]: 6.2 h
Vz/F, Geometric Mean [2, 7]: 2205000.0 mL
AUC0-inf, Geometric Mean [2, 8]: 4415.0 ng·h/mL
AUC0-t, Geometric Mean [2, 8]: 4175.0 ng·h/mL
Cl/F, Geometric Mean [2, 8]: 276000.0 mL/h
Cmax, Geometric Mean [2, 8]: 547.5 ng/mL
T1/2, Mean [2, 8]: 6.3 h
Vz/F, Geometric Mean [2, 8]: 2155000.0 mL
AUC0-inf, Geometric Mean [2, 9]: 5360.0 ng·h/mL
AUC0-t, Geometric Mean [2, 9]: 5190.0 ng·h/mL
Cl/F, Geometric Mean [2, 9]: 274500.0 mL/h
Cmax, Geometric Mean [2, 9]: 633.0 ng/mL
T1/2, Mean [2, 9]: 4.7 h
Vz/F, Geometric Mean [2, 9]: 1920000.0 mL
AUC0-inf, Geometric Mean [2, 10]: 4180.0 ng·h/mL
AUC0-t, Geometric Mean [2, 10]: 4070.0 ng·h/mL
Cl/F, Geometric Mean [2, 10]: 407000.0 mL/h
Cmax, Geometric Mean [2, 10]: 408.0 ng/mL
T1/2, Mean [2, 10]: 5.8 h
Vz/F, Geometric Mean [2, 10]: 2780000.0 mL
median Tmax ([2]; single dose, range over cohorts): 1 to 4 h
mean half-life ([2]; single oral dose, range over cohorts): 3.6 to 6.3 h
